Experimental data taken from patent US9777000B2, “Pyrazole derivative” (MOCHIDA PHARMACEUTICAL CO., LTD., priority 2013, dated 2017).

Molecular target: human PDE10 (Homo sapiens (Human), UniProt Q9Y233)
Assay: Evaluation of enzyme inhibitory activity: human PDE10 inhibitory effect (IMAP TR-FRET)
Type: biochemical
Conditions: cAMP substrate
Method: (Evaluation of Enzyme Inhibitory Activity: Human PDE10 Inhibitory Effect)
IMAP TR-FRET Phosphodiersterase Evaluation Assay Kit (Molecular Device) was used for the measurement. Ten μL of a diluted test compound having each concentration and 5 μL of the enzyme PDE10 (BPA Bioscience) that had been diluted to 2 ng/mL with 1×IMAP Reaction Buffer (prepared with 5×included with the kit, 10 mM Tris-HCl, pH=7.2, 10 mM MgCl2, 0.05% NaN3, and 0.1% BSA) containing 0.1% BSA were added to a 384-well plate (Corning). The obtained mixture was then pre-incubated at room temperature for 5 minutes. Thereafter, 5 μL of cAMP substrate solution which was included with the kit and diluted to 400 nM with 1×IMAP Reaction Buffer containing 0.1% BSA, was added to the reaction solution, and the obtained mixture was reacted at room temperature for 60 minutes. Thereafter, 60 μL of an IMAP TR-FRET Binding solution included with the kit was further added to the reaction solution, and the obtained mixture was then left for 3 hours or more. Subsequently, using ARVO SX (PerkinElmer), the fluorescent intensity of Terbium (Emission=490 nm) and TR-FRET (Emission=520 nm) in the reaction solution were measured at an excitation wavelength of 340 nm, so as to calculate the amount of the generated 5′-AMP. The count of a well to which a solvent had been added instead of the test compound was set at 0%, and the count of a well to which the enzyme PDE10 had not been added was set at 100%. Thus, the inhibitory activity of each test compound was calculated.
The PDE10 inhibitory activity of the test compound was indicated with an IC50 value. […] The test compounds are shown in Table 3 (Table 3-1 and Table 3-2).

human PDE10, sequence (Q9Y233 whole entry): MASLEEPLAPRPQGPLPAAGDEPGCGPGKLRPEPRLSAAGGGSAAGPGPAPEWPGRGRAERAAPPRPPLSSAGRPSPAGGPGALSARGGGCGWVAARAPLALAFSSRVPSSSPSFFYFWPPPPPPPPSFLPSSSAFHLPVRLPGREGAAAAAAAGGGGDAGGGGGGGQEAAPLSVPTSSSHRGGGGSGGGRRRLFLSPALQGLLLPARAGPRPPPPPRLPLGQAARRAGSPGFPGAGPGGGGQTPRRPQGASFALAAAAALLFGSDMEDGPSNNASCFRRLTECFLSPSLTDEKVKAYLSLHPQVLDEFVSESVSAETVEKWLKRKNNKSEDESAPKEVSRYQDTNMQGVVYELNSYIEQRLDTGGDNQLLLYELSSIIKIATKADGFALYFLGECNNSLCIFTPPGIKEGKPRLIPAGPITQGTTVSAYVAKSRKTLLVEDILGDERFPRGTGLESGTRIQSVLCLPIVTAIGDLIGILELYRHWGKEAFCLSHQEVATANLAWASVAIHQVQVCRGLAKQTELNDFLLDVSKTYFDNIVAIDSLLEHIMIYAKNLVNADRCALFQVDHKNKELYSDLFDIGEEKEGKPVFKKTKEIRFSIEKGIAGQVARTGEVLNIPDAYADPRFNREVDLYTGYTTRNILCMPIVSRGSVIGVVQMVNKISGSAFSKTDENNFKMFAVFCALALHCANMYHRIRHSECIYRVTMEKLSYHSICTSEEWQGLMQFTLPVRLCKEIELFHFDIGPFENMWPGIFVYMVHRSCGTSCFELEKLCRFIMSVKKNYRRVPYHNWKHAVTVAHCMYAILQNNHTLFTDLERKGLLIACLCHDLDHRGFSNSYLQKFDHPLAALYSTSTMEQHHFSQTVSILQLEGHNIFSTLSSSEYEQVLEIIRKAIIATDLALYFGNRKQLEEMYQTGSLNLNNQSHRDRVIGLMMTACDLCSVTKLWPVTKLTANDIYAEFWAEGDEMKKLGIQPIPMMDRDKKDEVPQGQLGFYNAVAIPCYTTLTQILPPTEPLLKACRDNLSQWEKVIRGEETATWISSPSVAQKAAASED

| Compound | IC50 [nM] |
| --- | --- |
| Cc1ccc(-c2cnn(C)c2C(=O)Nc2ccn3cc(-c4ccccc4)nc3c2)nc1 [Example 1.1, 1-methyl-4-(5-methylpyridin-2-yl)-N-(2-phenylimidazo[1,2-a]pyridin-7-yl)-1H-pyrazole-5-carboxamide] | < 5 |
| Cn1ncc(-c2nc(C(F)F)cs2)c1C(=O)Nc1ccn2cc(-c3ccccc3)nc2c1 [Example 1.3, 4-(4-(difluoromethyl)thiazol-2-yl)-1-methyl-N-(2-phenylimidazo[1,2-a]pyridin-7-yl)-1H-pyrazole-5-carboxamide] | < 5 |
| Cn1ncc(-c2nc(C(F)(F)F)cs2)c1C(=O)Nc1ccn2cc(-c3ccccc3)nc2c1 [Example 1.5, 1-methyl-N-(2-phenylimidazo[1,2-a]pyridin-7-yl)-4-(4-(trifluoromethyl)thiazol-2-yl)-1H-pyrazole-5-carboxamide] | < 5 |
| Cn1ncc(-c2cccc(C(F)(F)F)n2)c1C(=O)Nc1ccn2cc(-c3ccccc3)nc2c1 [Example 1.6, 1-methyl-N-(2-phenylimidazo[1,2-a]pyridin-7-yl)-4-(6-(trifluoromethyl)pyridin-2-yl)-1H-pyrazole-5-carboxamide] | < 5 |
| Cn1ncc(-c2nc(C(F)(F)F)cs2)c1C(=O)NC1CCn2cc(-c3ccccc3)nc2C1 (centres unmarked) [Example 2.3, 1-methyl-N-(2-phenyl-5,6,7,8-tetrahydroimidazo[1,2-a]pyridin-7-yl)-4-(4-(trifluoromethyl)thiazol-2-yl)-1H-pyrazole-5-carboxamide] | < 5 |
| Cn1ncc(-c2nc(C(F)F)cs2)c1C(=O)NC1CCn2cc(-c3ccccc3)nc2C1 (centres unmarked) [Example 2.4, 4-(4-(difluoromethyl)thiazol-2-yl)-1-methyl-N-(2-phenyl-5,6,7,8-tetrahydroimidazo[1,2-a]pyridin-7-yl)-1H-pyrazole-5-carboxamide] | < 5 |
| Cn1ncc(-c2nc(C(F)F)c(Cl)s2)c1C(=O)NC1CCn2cc(-c3ccccc3)nc2C1 (centres unmarked) [Example 2.5, 4-(5-chloro-4-(difluoromethyl)thiazol-2-yl)-1-methyl-N-(2-phenyl-5,6,7,8-tetrahydroimidazo[1,2-a]pyridin-7-yl)-1H-pyrazole-5-carboxamide] | < 5 |
| Cc1sc(-c2cnn(C)c2C(=O)NC2CCn3cc(-c4ccccc4)nc3C2)nc1C(F)F (centres unmarked) [Example 2.6, 4-(4-(difluoromethyl)-5-methylthiazol-2-yl)-1-methyl-N-(2-phenyl-5,6,7,8-tetrahydroimidazo[1,2-a]pyridin-7-yl)-1H-pyrazole-5-carboxamide] | < 5 |
| Cc1cncc(-c2cnn(C)c2C(=O)NC2CCn3cc(-c4ccccc4)nc3C2)n1 (centres unmarked) [Example 2.13, 1-methyl-4-(6-methylpyrazin-2-yl)-N-(2-phenyl-5,6,7,8-tetrahydroimidazo[1,2-a]pyridin-7-yl)-1H-pyrazole-5-carboxamide] | < 5 |
| CC(C)c1nsc(-c2cnn(C)c2C(=O)NC2CCn3cc(-c4ccccc4)nc3C2)n1 (centres unmarked) [Example 2.14, 4-(3-isopropyl-1,2,4-thiadiazol-5-yl)-1-methyl-N-(2-phenyl-5,6,7,8-tetrahydroimidazo[1,2-a]pyridin-7-yl)-1H-pyrazole-5-carboxamide] | < 5 |
| Cc1cnc(-c2cnn(C)c2C(=O)NC2CCn3cc(-c4ccccc4)nc3C2)s1 (centres unmarked) [Example 2.15, 1-methyl-4-(5-methylthiazol-2-yl)-N-(2-phenyl-5,6,7,8-tetrahydroimidazo[1,2-a]pyridin-7-yl)-1H-pyrazole-5-carboxamide] | < 5 |
| Cn1ncc(-c2nc(C(F)(F)F)cs2)c1C(=O)NC1CCn2c(nc(-c3ccccc3)c2F)C1 (centres unmarked) [Example 2.19, N-(3-fluoro-2-phenyl-5,6,7,8-tetrahydroimidazo[1,2-a]pyridin-7-yl)-1-methyl-4-(4-(trifluoromethyl)thiazol-2-yl)-1H-pyrazole-5-carboxamide] | < 5 |
| Cc1ccnc(-c2cnn(C)c2C(=O)NC2CCn3cc(-c4ccccc4)nc3C2)c1 (centres unmarked) [Example 2.22, 1-methyl-4-(4-methylpyridin-2-yl)-N-(2-phenyl-5,6,7,8-tetrahydroimidazo[1,2-a]pyridin-7-yl)-1H-pyrazole-5-carboxamide] | < 5 |
| Cn1ncc(-c2nc(C(F)(F)F)cs2)c1C(=O)Nc1cc2nc(-c3ccccc3)nn2cc1F [Example 3.6, N-(6-fluoro-2-phenyl-[1,2,4]triazolo[1,5-a]pyridin-7-yl)-1-methyl-4-(4-(trifluoromethyl)thiazol-2-yl)-1H-pyrazole-5-carboxamide] | < 5 |
| COc1cccnc1-c1cnn(C)c1C(=O)Nc1cc2nc(-c3ccccc3)nn2cc1F [Example 3.7, N-(6-fluoro-2-phenyl-[1,2,4]triazolo[1,5-a]pyridin-7-yl)-4-(3-methoxypyridin-2-yl)-1-methyl-1H-pyrazole-5-carboxamide] | < 5 |
| Cn1ncc(-c2ccc(F)cn2)c1C(=O)Nc1cc2nc(-c3ccccc3)nn2cc1F [Example 3.8, N-(6-fluoro-2-phenyl-[1,2,4]triazolo[1,5-a]pyridin-7-yl)-4-(5-fluoropyridin-2-yl)-1-methyl-1H-pyrazole-5-carboxamide] | < 5 |
| Cc1cc(C)nc(-c2cnn(C)c2C(=O)Nc2cc3nc(-c4ccccc4)nn3cc2F)c1 [Example 3.11, 4-(4,6-dimethylpyridin-2-yl)-N-(6-fluoro-2-phenyl-[1,2,4]triazolo[1,5-a]pyridin-7-yl)-1-methyl-1H-pyrazole-5-carboxamide] | < 5 |
| Cn1ncc(-c2nc(C(F)F)cs2)c1C(=O)Nc1cc2nc(-c3ccccc3)nn2cc1F [Example 3.12, 4-(4-(difluoromethyl)thiazol-2-yl)-N-(6-fluoro-2-phenyl-[1,2,4]triazolo[1,5-a]pyridin-7-yl)-1-methyl-1H-pyrazole-5-carboxamide] | < 5 |
| Cn1ncc(-c2ncccc2C#N)c1C(=O)Nc1cc2nc(-c3ccccc3)nn2cc1F [Example 3.13, 4-(3-cyanopyridin-2-yl)-N-(6-fluoro-2-phenyl-[1,2,4]triazolo[1,5-a]pyridin-7-yl)-1-methyl-1H-pyrazole-5-carboxamide] | < 5 |

More lines, now with the values ahead:

| IC50 [nM] | Compound |
| --- | --- |
| < 5 | Cc1csc(-c2cnn(C)c2C(=O)Nc2ccn3cc(-c4ccccc4)nc3c2)n1 [Example 1.2, 1-methyl-4-(4-methylthiazol-2-yl)-N-(2-phenylimidazo[1,2-a]pyridin-7-yl)-1H-pyrazole-5-carboxamide] |
| < 5 | Cc1sc(-c2cnn(C)c2C(=O)Nc2ccn3cc(-c4ccccc4)nc3c2)nc1C(F)F [Example 1.4, 4-(4-(difluoromethyl)-5-methylthiazol-2-yl)-1-methyl-N-(2-phenylimidazo[1,2-a]pyridin-7-yl)-1H-pyrazole-5-carboxamide] |
| < 5 | Cn1ncc(-c2nc(C(F)F)c(Cl)s2)c1C(=O)Nc1ccn2cc(-c3ccccc3)nc2c1 [Example 1.7, 4-(5-chloro-4-(difluoromethyl)thiazol-2-yl)-1-methyl-N-(2-phenylimidazo[1,2-a]pyridin-7-yl)-1H-pyrazole-5-carboxamide] |
| < 5 | Cn1ncc(-c2nc(C(F)(F)F)cs2)c1C(=O)NC1CCn2cc(-c3cccc(F)c3)nc2C1 (centres unmarked) [Example 2.8, N-(2-(3-fluorophenyl)-5,6,7,8-tetrahydroimidazo[1,2-a]pyridin-7-yl)-1-methyl-4-(4-(trifluoromethyl)thiazol-2-yl)-1H-pyrazole-5-carboxamide] |
| < 5 | Cc1cccc(-c2cnn(C)c2C(=O)NC2CCn3cc(-c4ccccc4)nc3C2)n1 (centres unmarked) [Example 2.9, 1-methyl-4-(6-methylpyridin-2-yl)-N-(2-phenyl-5,6,7,8-tetrahydroimidazo[1,2-a]pyridin-7-yl)-1H-pyrazole-5-carboxamide] |
| < 5 | COc1cccc(-c2cnn(C)c2C(=O)NC2CCn3cc(-c4ccccc4)nc3C2)n1 (centres unmarked) [Example 2.11, 4-(6-methoxypyridin-2-yl)-1-methyl-N-(2-phenyl-5,6,7,8-tetrahydroimidazo[1,2-a]pyridin-7-yl)-1H-pyrazole-5-carboxamide] |
| < 5 | Cc1nc(-c2cnn(C)c2C(=O)NC2CCn3cc(-c4ccccc4)nc3C2)cs1 (centres unmarked) [Example 2.12, 1-methyl-4-(2-methylthiazol-4-yl)-N-(2-phenyl-5,6,7,8-tetrahydroimidazo[1,2-a]pyridin-7-yl)-1H-pyrazole-5-carboxamide] |
| < 5 | Cn1ncc(-c2nc(C(F)F)cs2)c1C(=O)NC1CCn2cc(-c3ccc(F)cc3)nc2C1 (centres unmarked) [Example 2.28, 4-(4-(difluoromethyl)thiazol-2-yl)-N-(2-(4-fluorophenyl)-5,6,7,8-tetrahydroimidazo[1,2-a]pyridin-7-yl)-1-methyl-1H-pyrazole-5-carboxamide] |
| < 5 | Cn1ncc(-c2nc(C(F)(F)F)cs2)c1C(=O)NC1CCn2cc(-c3ccc(F)cc3)nc2C1 (centres unmarked) [Example 2.29, N-(2-(4-fluorophenyl)-5,6,7,8-tetrahydroimidazo[1,2-a]pyridin-7-yl)-1-methyl-4-(4-(trifluoromethyl)thiazol-2-yl)-1H-pyrazole-5-carboxamide] |
| < 5 | Cc1cncc(-c2cnn(C)c2C(=O)Nc2cc3nc(-c4ccccc4)nn3cc2F)n1 [Example 3.9, N-(6-fluoro-2-phenyl-[1,2,4]triazolo[1,5-a]pyridin-7-yl)-1-methyl-4-(6-methylpyrazin-2-yl)-1H-pyrazole-5-carboxamide] |
